Experimental data as given in US20260317319A1, “NOVEL ERGOLINES AND METHODS OF TREATING MOOD DISORDERS” (Gilgamesh Pharma Inc., priority 2023, published 2026).
Entries after “also recorded” stand apart in the source; their conditions may differ.

Assays:
[1] = target: T1, D1 dopamine receptor (Homo sapiens, UniProt P21728); experiment: Ca2+ flux functional assay at D1; assay type: cell-based; conditions: agonist, max dose, read-out: D1 % Act @ Max Dose
T1 construct: expressed in transfected cells
T1 sequence (P21728 whole entry): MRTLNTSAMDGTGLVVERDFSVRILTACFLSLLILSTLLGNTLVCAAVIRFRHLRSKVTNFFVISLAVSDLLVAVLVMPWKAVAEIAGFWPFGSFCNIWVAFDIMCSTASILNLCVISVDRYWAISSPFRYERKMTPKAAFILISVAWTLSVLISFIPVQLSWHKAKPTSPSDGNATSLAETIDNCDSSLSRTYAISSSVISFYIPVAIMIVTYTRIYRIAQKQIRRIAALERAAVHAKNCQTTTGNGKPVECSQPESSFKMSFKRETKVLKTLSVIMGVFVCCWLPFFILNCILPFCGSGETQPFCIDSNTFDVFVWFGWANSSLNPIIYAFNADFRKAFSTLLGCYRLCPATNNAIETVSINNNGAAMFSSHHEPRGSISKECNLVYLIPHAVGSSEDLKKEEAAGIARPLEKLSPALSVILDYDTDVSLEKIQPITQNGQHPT
Procedure: Disclosed compounds were tested for agonist activity at several adrenergic (Alpha1A and Alpha2A) and dopamine (D1 and D2) receptor subtypes using Ca^2+ flux functional assays, with the results summarized in Table 6. Selectivity for the 5-HT2A receptor over these other targets varied depending on the specific target and compound.
(§1) Functional Assays at Adrenergic and Dopamine Receptors. Agonist activity at Alpha1A, Alpha2A, D1, and D2 receptors was determined using a FLIPR Ca^2+ flux assay at WuXi AppTec (Hong Kong) Limited according to their standard protocols. Briefly, stably transfected cells expressing the receptor of interest were grown and plated in a 384 well plate and incubated at 37° C. and 5% CO2 overnight. A solution of 250 mM probenecid in 1 mL FLIPR assay buffer was prepared fresh. This was combined with a fluorescent dye (Fluo-4 Direct™) to make a final assay concentration of 2.5 mM. Compounds were diluted 1:3.16 for 10 points and 750 nL was added to a 384 well compound plate using ECHO along with 30 μL assay buffer. The fluorescent dye was then added to the assay plate along with assay buffer to a final volume of 40 μL. The cell plate was incubated for 50 min at 37° C. and 5% CO2 and placed into the FLIPR Tetra along with the compound plate. 10 μL of references and compounds were then transferred from the compound plate into the cell plate and the fluorescent signal was read.

[2] = target: T2, Alpha2A adrenergic receptor (Homo sapiens, UniProt P08913); experiment: Ca2+ flux functional assay at Alpha2A; assay type: cell-based; conditions: for maximal efficacy at Alpha2A: "higher" is compared to the N-methyl compound LSD; for Emax: agonist, Ca2+ flux, max dose, read-out: Alpha 2A % Act @ Max Dose
T2 construct: expressed in transfected cells
T2 sequence (P08913 1-465): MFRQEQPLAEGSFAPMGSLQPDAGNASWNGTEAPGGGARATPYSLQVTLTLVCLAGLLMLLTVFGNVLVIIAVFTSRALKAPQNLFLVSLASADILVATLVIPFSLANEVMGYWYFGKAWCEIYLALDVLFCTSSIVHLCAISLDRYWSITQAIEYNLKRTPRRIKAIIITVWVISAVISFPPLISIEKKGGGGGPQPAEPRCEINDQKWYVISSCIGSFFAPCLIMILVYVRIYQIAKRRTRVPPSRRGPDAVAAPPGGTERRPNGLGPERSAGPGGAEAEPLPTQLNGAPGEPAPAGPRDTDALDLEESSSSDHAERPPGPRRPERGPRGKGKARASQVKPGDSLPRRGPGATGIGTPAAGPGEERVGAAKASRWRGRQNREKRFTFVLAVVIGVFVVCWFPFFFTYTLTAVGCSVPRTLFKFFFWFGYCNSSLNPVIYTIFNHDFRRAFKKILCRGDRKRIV
Procedure: as §1, with “Compounds were diluted 1:3.16 for 10 points and 750 nL was added to a 384 well compound plate using ECHO along with 30 μL assay buffer.” left out

[3] = test system: C57BL/6 mice; experiment: Mouse head twitch response (HTR) assay (observer-counted); assay type: in vivo; conditions: for HTR at most efficacious dose (bound): 20 min; for efficacy in HTR assay: maximal effect
[4] = test system: C57BL/6 mice; experiment: Automated mouse head twitch response (HTR) assay (video tracking); assay type: in vivo; conditions: sc
Procedure: Disclosed compounds were tested for their ability to induce a head twitch response (HTR) in mice using an automated video tracking procedure, with the results summarized in Table 8 and FIG. 4.
Animals. Adult male C57BL/6 mice aged 8-10 weeks (Jackson Labs, Bar Harbor, ME; body weight 18-25 g) were used in this experiment. Animals were group housed under environmentally controlled temperatures and 12-hour light/dark cycles (lights on between 06:00-18:00 h), with ad libitum food and water. Mice were habituated to the facility for at least 5 days prior to testing. All animal procedures were approved by the local IACUC and conducted in accordance with the NIH Guide for the Care and Use of Laboratory Animals.
Procedure. Mice were administered one dose of the drug and immediately placed into a small open field for behavioral observation. High-speed video of animals' behavior was captured continuously for 20 min. Video recordings were imported into an image processing software, which detects multiple points of interest on each animal's body, including the left and right ear. HTR events were defined as periodic deviations of ear locations from temporally averaged ear locations. Predefined thresholds for magnitude and frequency of location deviations were used to filter HTR events from random head movements. The method was validated by comparing detected events with manual (human) observations and found to have an accuracy >95%. The total number of HTR events counted during the 20-min recording and the rate in HTR/min calculated over 2-min bins were determined for each animal at each dose.
Statistical Analysis. The data points shown are the mean±standard error of the mean (SEM).

CCCN1C[C@H](C(=O)N(CC)CC)C=C2c3cccc4[nH]cc(c34)C[C@H]21 [Compound 1, (6aR,9R)—N,N-diethyl-7-propyl-4,6,6a,7,8,9-hexahydroindolo[4,3-fg]quinoline-9-carboxamide]
Emax [1]: 109% | maximal efficacy at Alpha2A [2]: substantially higher maximal efficacy | Emax [2]: 58.3% | head twitch response ([3]; 20 min observation, FIG. 1): robust and dose-dependent HTR | HTR at most efficacious dose (bound) ([3]; SC): > 15 HTR | # HTR/20 min at Most Efficacious Dose ([4]; 20 min recording, mean, at each compound's most efficacious dose (35*, 43*, 44*: suppressed below vehicle 14.5, dose is that of least suppression)): 20.625 HTR/20 min | Most Efficacious Dose for Peak HTR/min ([4]; dose giving highest peak HTR/min (35*, 43*, 44*: dose that resulted in the least suppression)): (0.32) mg/kg, sc | Most Efficacious Dose for # HTR/20 min ([4]; dose giving most HTR/20 min (35*, 43*, 44*: dose that resulted in the least suppression)): (0.32) mg/kg, sc | Peak HTR/min at Most Efficacious Dose ([4]; rate over 2-min bins, mean, at each compound's most efficacious dose (35*, 43*, 44*: suppressed below vehicle 1.62, dose is that of least suppression)): 2.19 HTR/min

CCCN1C[C@H](C(=O)N2[C@@H](C)C[C@@H]2C)C=C2c3cccc4[nH]cc(c34)C[C@H]21 [Compound 4, ((2S,4S)-2,4-dimethylazetidin-1-yl)((6aR,9R)-7-propyl-4,6,6a,7,8,9-hexahydroindolo[4,3-fg]quinolin-9-yl)methanone]
Emax [1]: 114% | maximal efficacy at Alpha2A [2]: substantially higher maximal efficacy | Emax [2]: 103% | efficacy in HTR assay ([3]; SC): less efficacious than its N-methyl counterpart compound Int11; also recorded: lower efficacy than analogous compounds bearing other amide substituents

CCN(CC)C(=O)[C@@H]1C=C2c3cccc4[nH]cc(c34)C[C@H]2N(CCCF)C1 [Compound 2, (6aR,9R)—N,N-diethyl-7-(3-fluoropropyl)-4,6,6a,7,8,9-hexahydroindolo[4,3-fg]quinoline-9-carboxamide]
Emax [1]: 114% | maximal efficacy at Alpha2A [2]: substantially higher maximal efficacy | Emax [2]: 65% | HTR at most efficacious dose (bound) ([3]; SC): > 15 HTR

CCN(CC)C(=O)[C@@H]1C=C2c3cccc4[nH]cc(c34)C[C@H]2N(Cc2ccccc2OC)C1 [Compound 10, (6aR,9R)—N,N-diethyl-7-(2-methoxybenzyl)-4,6,6a,7,8,9-hexahydroindolo[4,3-fg]quinoline-9-carboxamide]
Emax [1]: 114% | maximal efficacy at Alpha2A [2]: very low efficacy agonists | Emax [2]: 36.5% | efficacy in HTR assay ([3]; SC): low efficacy | # HTR/20 min at Most Efficacious Dose ([3]; SC, most efficacious dose 3.2 mg/kg): 6.5 HTR/20 min
